Data published in ChEMBL document CHEMBL3272045, “4-amino-6-(trichloroethenyl)-1,3-benzenedisulfonamide, a new, potent fasciolicide” (J Med Chem, 1977).

Key:
Ovis aries = assay: Toxicity in Fasciola hepatica metacercariae infected in sheep assessed as induction of gross toxic reactions at 200 to 400 mg/kg, po administered as single dose; assay type: organism-based; set-up: dose 200-400 mg/kg, route oral; details: in vivo
Fasciola hepatica [1] = assay: Fasciolicidal activity against Fasciola hepatica metacercariae infected in sheep assessed as elimination of liver flukes at 15 mg/kg, po measured 6 weeks after infection; assay type: functional; details: 1008 h
Fasciola hepatica [2] = assay: Fasciolicidal activity against Fasciola hepatica metacercariae infected in sheep assessed as elimination of liver flukes at 2.5 mg/kg, po measured 16 weeks after infection; assay type: functional; details: 2688 h
Fasciola hepatica [3] = assay: Fasciolicidal activity against Fasciola hepatica metacercariae infected in rat assessed as elimination of liver flukes at 3.1 mg/kg, po administered as single dose; assay type: functional
Fasciola hepatica [4] = assay: Fasciolicidal activity against Fasciola hepatica metacercariae infected in calves assessed as elimination of liver flukes at 15 mg/kg, po measured 8 weeks after infection; assay type: functional; details: 1344 h
Fasciola hepatica [5] = assay: Fasciolicidal activity against Fasciola hepatica metacercariae infected in po dosed rat assessed as elimination of liver flukes administered as single dose; assay type: functional; details: read-out: MED

| Structure (SMILES) | Activity (Ovis aries) | inhibition in vivo at 15 mg/kg (Fasciola hepatica [1]) [%] | inhibition in vivo at 2.5 mg/kg (Fasciola hepatica [2]) [%] | inhibition in vivo at 3.1 mg/kg (Fasciola hepatica [3]) [%] | inhibition in vivo at 15 mg/kg (Fasciola hepatica [4]) [%] | minimal effective dose (Fasciola hepatica [5]) [mg/kg] |
| --- | --- | --- | --- | --- | --- | --- |
| Nc1cc(C(Cl)=C(Cl)Cl)c(S(N)(=O)=O)cc1S(N)(=O)=O [CLORSULON] | Non-toxic | > 90 | 90 | > 90 | > 90 | – |
| O=C(Nc1ccc(Oc2ccc(Cl)cc2)c(Cl)c1)c1cc(I)cc(I)c1O [RAFOXANIDE] | – | – | – | – | – | 3.1 |
